From patent US20240317723A1, “SUBSTITUTED AMINO AZA-HETEROARYL COMPOUNDS AS INHIBITORS OF THE HAEMATOPOIETIC PROGENITOR KINASE 1 (HPK1)” (priority 2021, published 2024)

Experiments:
Lck (h) = Lck (h) (Homo sapiens, UniProt P06239); assay: Lck Human STE Kinase Enzymatic Radiometric Assay; type: biochemical; conditions: for IC50: radiometric, [gamma-33P]-ATP, Cdc2 peptide substrate, read-out: Lck IC50, nM Range*; for Selectivity: selectivity for inhibition of HPK1 vs Lck
Experimental: (b) Lck Human STE Kinase Enzymatic Radiometric Assay
Lck (h) is incubated with 50 mM Tris pH 7.5, 0.1 mM EGTA, 0.1 mM Na3VO4, 250 uM KVEKIGEGTYGVVYK (Cdc2 peptide), 10 mM MgAcetate and [gamma-33P]-ATP (specific activity and concentration as required). The reaction is initiated by the addition of the Mg/ATP mix. After incubation for 40 minutes at room temperature, the reaction is stopped by the addition of phosphoric acid to a concentration of 0.5%. 10 uL of the reaction is then spotted onto a P30 filtermat and washed four times for 4 minutes in 0.425% phosphoric acid and once in methanol prior to drying and scintillation counting. For more details on the kinase assay procedures see: Gao, Y. et. al.; Biochem J., 451 (2): 313-328, 2013.
In some embodiments the presence of substituents on monocyclic Cy^2 rings or when Cy^2 is a bicyclic ring (unsubstituted or substituted) provides compounds with improved selectivity for inhibition of HPK1 vs Lck (see, for example, Table 3 and Table 4).

[1] = target: T1, Recombinant (1-346) HPK1 (h) (Homo sapiens, UniProt Q92918); assay: HPK1 Human STE Kinase Enzymatic Radiometric Assay; type: biochemical; conditions: [gamma-33P]-ATP, myelin basic protein substrate, read-out: HPK1 IC50 nM Range*
T1 construct: Recombinant (1-346) HPK1 (h) is incubated with 8 mM MOPS pH 7.0
T1 sequence (Q92918 1-346): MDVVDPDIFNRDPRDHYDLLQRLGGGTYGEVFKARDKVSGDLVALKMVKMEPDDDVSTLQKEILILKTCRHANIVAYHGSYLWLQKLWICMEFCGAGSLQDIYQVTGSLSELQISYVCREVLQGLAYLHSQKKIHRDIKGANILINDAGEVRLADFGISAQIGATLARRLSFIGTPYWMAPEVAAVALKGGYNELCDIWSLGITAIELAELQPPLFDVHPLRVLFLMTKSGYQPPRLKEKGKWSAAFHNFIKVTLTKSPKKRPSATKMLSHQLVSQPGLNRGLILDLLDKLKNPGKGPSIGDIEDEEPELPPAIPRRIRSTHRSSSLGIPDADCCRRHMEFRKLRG
Experimental: (a) HPK1 Human STE Kinase Enzymatic Radiometric Assay
A stock solution of 10 mM of test compound is prepared in DMSO. The compound plate was prepared by 3-fold and 9-point serial dilutions. Recombinant (1-346) HPK1 (h) is incubated with 8 mM MOPS pH 7.0, 0.2 mM EDTA, 0.33 mg/mL myelin basic protein, 10 mM MgAcetate and [gamma-33P]-ATP (specific activity and concentration as required). The reaction is initiated by the addition of the Mg/ATP mix. After incubation for 40 minutes at RT, the reaction is stopped by the addition of phosphoric acid to a concentration of 0.5%. 10 uL of the reaction is then spotted onto a P30 filtermat and washed four times for 4 minutes in 0.425% phosphoric acid and once in methanol prior to drying and scintillation counting. For more details of kinase assay protocols, see: Gao, Y. et. al.; Biochem J. 451 (2): 313-328, 2013.

Chain of Lck (h) (P06239 whole entry): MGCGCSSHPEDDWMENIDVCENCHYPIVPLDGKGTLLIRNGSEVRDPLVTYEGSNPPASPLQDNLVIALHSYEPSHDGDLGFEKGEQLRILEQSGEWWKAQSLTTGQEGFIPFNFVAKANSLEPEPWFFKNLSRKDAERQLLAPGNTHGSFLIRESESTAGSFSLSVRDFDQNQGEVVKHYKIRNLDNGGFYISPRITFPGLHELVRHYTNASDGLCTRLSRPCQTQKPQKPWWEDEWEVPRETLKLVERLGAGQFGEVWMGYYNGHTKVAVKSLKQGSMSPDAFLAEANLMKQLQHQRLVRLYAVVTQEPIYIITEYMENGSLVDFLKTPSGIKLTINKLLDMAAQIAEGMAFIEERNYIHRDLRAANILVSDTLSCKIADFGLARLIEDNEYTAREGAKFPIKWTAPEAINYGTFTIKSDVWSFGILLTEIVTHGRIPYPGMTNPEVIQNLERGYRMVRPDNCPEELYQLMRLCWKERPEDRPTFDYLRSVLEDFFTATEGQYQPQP

Cc1nc2cc(-c3nc(-c4ccc(C5CCOCC5)c(CN(C)C)c4)cnc3N)ccc2c(=O)[nH]1 [II-3, 7-(3-amino-6-(3-((dimethylamino)methyl)-4-(tetrahydro-2H-pyran-4-yl)phenyl)pyrazin-2-yl)-2-methylquinazolin-4(3H)-one]
IC50 (Lck (h)): 21 to 200 nM | IC50 [1]: 0.1 to 5 nM

CN([C@H]1CCN(c2ccc(-c3cnc(N)c(-c4ccc5c(c4)CCNC5=O)n3)cc2)C1)S(C)(=O)=O [Example I-10, (S)-N-(1-(4-(5-amino-6-(1-oxo-1,2,3,4-tetrahydroisoquinolin-6-yl)pyrazin-2-yl)phenyl)pyrrolidin-3-yl)-N-methylmethanesulfonamide]
IC50 (Lck (h)): 11 to 20 nM | IC50 [1]: 0.1 to 5 nM

CC(C)[C@H]1CN(c2ccc(-c3cnc(N)c(-c4ccc5c(c4)CCNC5=O)n3)cc2)CCO1 [Example I-8, (S)-6-(3-amino-6-(4-(2-isopropylmorpholino)phenyl)pyrazin-2-yl)-3,4-dihydroisoquinolin-1(2H)-one]
IC50 (Lck (h)): 11 to 20 nM | Selectivity (Lck (h)): 170 | IC50 [1]: 0.1 to 5 nM

CC(C)[C@H]1CN(c2ccc(-c3cnc(N)c(-c4ccc5c(c4)CCNC5=O)n3)c(F)c2)CCN1C [Example I-41, (S)-6-(3-amino-6-(2-fluoro-4-(3-isopropyl-4-methylpiperazin-1-yl)phenyl)pyrazin-2-yl)-3,4-dihydroisoquinolin-1(2H)-one]
IC50 (Lck (h)): 21 to 200 nM | IC50 [1]: 0.1 to 5 nM

CN1CCN(c2ccc(-c3cnc(N)c(-c4ccc5c(c4)CCNC5=O)n3)cc2)CC1 [Example I-1, 6-(3-amino-6-(4-(4-methylpiperazin-1-yl)phenyl)pyrazin-2-yl)-3,4-dihydroisoquinolin-1(2H)-one]
IC50 (Lck (h)): 6 to 10 nM | IC50 [1]: 0.1 to 5 nM

CN1CCN(c2ccc(-c3cnc(N)c(-c4ccc5c(c4)CCNC5=O)n3)cc2F)CC1 [Example I-4, 6-(3-amino-6-(3-fluoro-4-(4-methylpiperazin-1-yl)phenyl)pyrazin-2-yl)-3,4-dihydroisoquinolin-1(2H)-one]
IC50 (Lck (h)): 6 to 10 nM | IC50 [1]: 0.1 to 5 nM

CC(C)[C@@H]1CN(c2ccc(-c3cnc(N)c(-c4ccc5c(c4)CCNC5=O)n3)cc2)CCN1C [Example I-38, (R)-6-(3-amino-6-(4-(3-isopropyl-4-methylpiperazin-1-yl)phenyl)pyrazin-2-yl)-3,4-dihydroisoquinolin-1(2H)-one]
IC50 (Lck (h)): 6 to 10 nM | IC50 [1]: 0.1 to 5 nM

CC(=O)N1CCN(c2ccc(-c3cnc(N)c(-c4ccc5c(c4)CCNC5=O)n3)cc2)CC1 [Example I-19, 6-(6-(4-(4-acetylpiperazin-1-yl)phenyl)-3-aminopyrazin-2-yl)-3,4-dihydroisoquinolin-1(2H)-one]
IC50 (Lck (h)): 11 to 20 nM | IC50 [1]: 0.1 to 5 nM

CN1C[C@@H]2C[C@H]1CN2c1ccc(-c2cnc(N)c(-c3ccc4c(c3)CCNC4=O)n2)cc1 [Example I-26, 6-(3-amino-6-(4-((1S,4S)-5-methyl-2,5-diazabicyclo[2.2.1]heptan-2-yl)phenyl)pyrazin-2-yl)-3,4-dihydroisoquinolin-1(2H)-one]
IC50 (Lck (h)): 11 to 20 nM | IC50 [1]: 0.1 to 5 nM

CC(C)[C@H]1CN(c2ccc(-c3cnc(N)c(-c4cc5c(cc4F)C(=O)NCC5)n3)c(F)c2F)CCO1 [Example I-32, (S)-6-(3-amino-6-(2,3-difluoro-4-(2-isopropylmorpholino)phenyl)pyrazin-2-yl)-7-fluoro-3,4-dihydroisoquinolin-1(2H)-one]
IC50 (Lck (h)): 21 to 200 nM | IC50 [1]: 0.1 to 5 nM

CC(C)N1C[C@H]2C[C@@]2(c2ccc(-c3cnc(N)c(-c4cc5c(cc4F)C(=O)NCC5)n3)cc2)C1 [Example I-46, 6-(3-amino-6-(4-((1R,5S)-3-isopropyl-3-azabicyclo[3.1.0]hexan-1-yl)phenyl)pyrazin-2-yl)-7-fluoro-3,4-dihydroisoquinolin-1(2H)-one]
IC50 (Lck (h)): 11 to 20 nM | IC50 [1]: 0.1 to 5 nM

Nc1ncc(-c2ccc(N3C[C@@H]4C[C@H]3CN4CC(F)(F)F)cc2)nc1-c1ccc2c(c1)CCNC2=O [Example I-34, 6-(3-amino-6-(4-((1S,4S)-5-(2,2,2-trifluoroethyl)-2,5-diazabicyclo[2.2.1]heptan-2-yl)phenyl)pyrazin-2-yl)-3,4-dihydroisoquinolin-1(2H)-1-one]
IC50 (Lck (h)): 11 to 20 nM | IC50 [1]: 0.1 to 5 nM

CC(C)[C@@H]1CN(c2ccc(-c3cnc(N)c(-c4ccc5c(c4)CCNC5=O)n3)c(F)c2)CCN1C [Example I-39, (R)-6-(3-amino-6-(2-fluoro-4-(3-isopropyl-4-methylpiperazin-1-yl)phenyl)pyrazin-2-yl)-3,4-dihydroisoquinolin-1(2H)-one]
IC50 (Lck (h)): 11 to 20 nM | IC50 [1]: 0.1 to 5 nM

CN1CCN(c2ccc(-c3cnc(N)c(-c4ccc5c(c4)CCCNC5=O)n3)cc2)CC1 [Example I-50, 7-(3-amino-6-(4-(4-methylpiperazin-1-yl)phenyl)pyrazin-2-yl)-2,3,4,5-tetrahydro-1H-benzo[c]azepin-1-one]
IC50 (Lck (h)): 6 to 10 nM | IC50 [1]: 0.1 to 5 nM

C[C@@H]1COCCN1c1ccc(-c2cnc(N)c(-c3ccc4c(c3)CCNC4=O)n2)cc1 [Example I-11, (R)-6-(3-amino-6-(4-(3-methylmorpholino)phenyl)pyrazin-2-yl)-3,4-dihydroisoquinolin-1(2H)-one]
IC50 (Lck (h)): 11 to 20 nM | Selectivity (Lck (h)): 170 | IC50 [1]: 0.1 to 5 nM

Nc1ncc(-c2ccc([C@@]34C[C@@H]3CN(CCF)C4)cc2)nc1-c1ccc2c(c1)CCNC2=O [Example I-37, 6-(3-amino-6-(4-((1R,5S)-3-(2-fluoroethyl)-3-azabicyclo[3.1.0]hexan-1-yl)phenyl)pyrazin-2-yl)-3,4-dihydroisoquinolin-1(2H)-one]
IC50 (Lck (h)): 6 to 10 nM | IC50 [1]: 0.1 to 5 nM

CN1C[C@H]2C[C@@]2(c2ccc(-c3cnc(N)c(-c4cc5c(cc4F)C(=O)NCC5)n3)cc2)C1 [Example I-45, 6-(3-amino-6-(4-((1R,5S)-3-methyl-3-azabicyclo[3.1.0]hexan-1-yl)phenyl)pyrazin-2-yl)-7-fluoro-3,4-dihydroisoquinolin-1(2H)-one]
IC50 (Lck (h)): 11 to 20 nM | IC50 [1]: 0.1 to 5 nM

CN(C)C1CCN(c2ccc(-c3cnc(N)c(-c4ccc5c(c4)CCNC5=O)n3)c(F)c2F)C1 (stereo not drawn) [Example I-21, 6-(3-amino-6-(4-(3-(dimethylamino)pyrrolidin-1-yl)-2,3-difluorophenyl)pyrazin-2-yl)-3,4-dihydroisoquinolin-1(2H)-one]
IC50 (Lck (h)): 11 to 20 nM | IC50 [1]: 0.1 to 5 nM

CC(C)[C@H]1CN(c2ccc(-c3cnc(N)c(-c4ccc5c(c4)CCNC5=O)n3)cc2)CCN1C [Example I-40, (S)-6-(3-amino-6-(4-(3-isopropyl-4-methylpiperazin-1-yl)phenyl)pyrazin-2-yl)-3,4-dihydroisoquinolin-1(2H)-one]
IC50 (Lck (h)): 6 to 10 nM | IC50 [1]: 0.1 to 5 nM

CN1CCN(c2ccc(-c3cnc(N)c(-c4cc5c(cc4F)C(=O)NCC5)n3)cc2)CC1 [Example I-12, 6-(3-amino-6-(4-(4-methylpiperazin-1-yl)phenyl)pyrazin-2-yl)-7-fluoro-3,4-dihydroisoquinolin-1(2H)-one]
IC50 (Lck (h)): 11 to 20 nM | IC50 [1]: 0.1 to 5 nM

CN1CCN(c2ccc(-c3cnc(N)c(-c4ccc5c(c4)C(C)(C)NC5=O)n3)cc2)CC1 [Example I-2, 5-(3-amino-6-(4-(4-methylpiperazin-1-yl)phenyl)pyrazin-2-yl)-3,3-dimethylisoindolin-1-one]
IC50 (Lck (h)): 6 to 10 nM | IC50 [1]: 0.1 to 5 nM

Nc1ncc(-c2ccc(C3CCN(CC(F)(F)F)CC3)cc2)nc1-c1ccc2c(c1)CCNC2=O [Example I-36, 6-(3-amino-6-(4-(1-(2,2,2-trifluoroethyl)piperidin-4-yl)phenyl)pyrazin-2-yl)-3,4-dihydroisoquinolin-1(2H)-one]
IC50 (Lck (h)): 11 to 20 nM | IC50 [1]: 0.1 to 5 nM

C[C@H]1COCCN1c1ccc(-c2cnc(N)c(-c3ccc4c(c3)CCNC4=O)n2)c(F)c1 [Example I-23, (S)-6-(3-amino-6-(2-fluoro-4-(3-methylmorpholino)phenyl)pyrazin-2-yl)-3,4-dihydroisoquinolin-1(2H)-one]
IC50 (Lck (h)): 11 to 20 nM | IC50 [1]: 0.1 to 5 nM
